The subject of one series is Sstr5 gene. The series is described as follows: Real-time PCR, sstr5 mRNA gene expression in IMR5 cells. Type of series: cell-based, human. The note with it: AE 50µM, SST14 10µM, 5,30,60,120 min (fig.1B). As to the method: (§1) Real-time PCR analyses were carried out to quantify expression of the selected sstrs genes in IMR5, DMS114, and MRC5 cells. Total RNA was isolated using the Qiagen RNeasy Mini Kit in accordance with the manufacturer's instructions. cDNA synthesis were performed using GeneAmp® RNA PCR Core Kit (Roche, New Jersey, U.S.A.). The expression levels of sstrs mRNA were evaluated by qualitative RT-PCR using the specific primers.
(§2) Relative quantitative PCR (qPCR) was carried out in 25 µl final volume utilizing 3 µl of cDNA, 0.2 µM of each specific primers, using SYBRgreen reagents according to the manufacturer's instructions. PCR reactions comprised 40 cycles after an initial denaturation step (95°C, 10 min) according to the parameters: denaturation at 95°C, 15 sec and annealing/extension at 60°C, 1 min, in an ABI PRISM 7700 Sequence Detection system. To normalize the RNA amount of the extracted samples, real-time PCR analysis of the human GAPDH cDNA was carried out. Moreover, we optimized the method for relative quantification with sequence-specific DNA probes for sstr2 and sstr5 genes TaqMan reagents using kit TaqMan Gene Expression Assays according to the manufacturer's instructions (Applied Biosystem, Milan, Italy). The relative quantification of a target template in the samples was evaluated using the 2^-ΔΔCT method. All experiments were conducted in triplicate.

The subject of series [1] is sstr2 gene. The series is described as follows: Real-time PCR, sstr2 mRNA gene expression in IMR5 cells. Type of series: cell-based, human. The note with it: SST14 10µM, 5,30,60,120 min (fig.1B). As to the method: as §1, §2
Series [2] concerns sstr2 gene. The series can be described thus: Real-time PCR, sstr2 mRNA gene expression in MRC5 cells. It is filed as cell-based, human. The note with it: AE 50µM, SST14 10µM, 5,30,60,120 min (fig.1B). The method, then:
as §1, §2

The conditions of series [3]: state of the art statement; cited from earlier work.

A value given as a limit tells only on which side of the number the result lay.

For the substance “SST14: somatostatin peptide containing 14 amino acids; natural ligand of somatostatin receptors”, in the series on Sstr5 gene, the Sstr5 gene expression result is on record as “up-regulated”. The sstr2 gene expression entry is given as “up-regulated” in the series on sstr2 gene [1] and “significantly upregulated” in the series with sstr2 gene [2]. Also, the plasma half-life in series [3] is below 3 min.

The values above are taken from patent publication EP3878441B1, “ALOE EMODIN AND ESTER DERIVATIVES THEREOF FOR TREATING SSTR2 AND/OR SSTR5 OVEREXPRESSING CANCERS” (Pecere, Teresa, priority 2020, dated 2021).
